Source: patent publication US4652649A, “Anti-spasmodic agents having a ring in the main chain” (United Pharmaceuticals, Inc., priority 1985, dated 1987)
Structures can show the parent of a compound that is named as a salt.

Tests used:
muscarinic receptors = assay type: binding, rabbit (New Zealand White); details: at a concentration of 1.0 × 10^-5 M; rabbit lung homogenate, 0.1 nM [3H]QNB, 37° C., 60 min
[1] = test system: gastrointestinal tract, biliary tract, ureter and uterus; details: cited from earlier work

SMILES | % inhibition of 3H[QNB] binding (muscarinic receptors) | decrease spasm of the gastrointestinal tract, biliary tract, ureter and uterus ([1]; in vivo) | atropinic side effects ([1]; salivary and sweat glands, GI glands, the eye or the cardiovascular system)
CCN(CC)CCSC(=O)c1ccc(C(C)(C)C)cc1 [4-t-butyl-benzoyl-thio-S-(2-diethylaminoethyl)-ester.HCl] | 21% |  | 
CCN(CC)CCSC(=O)C(c1ccccc1)c1ccccc1 [Thiphenamil hydrochloride] |  | decrease spasm of the gastrointestinal tract, biliary tract, ureter and uterus | without producing characteristic atropinic side effects
